In US20090023773A1, “COMPOSITIONS AND METHODS FOR MODULATING GATED ION CHANNELS” (PainCeptor Pharma Corporation, priority 2007, published 2009):

How the values were obtained:
[1] = target: T1, hASIC2a/3 steady state (window) current (Homo sapiens, UniProt Q16515+Q9UHC3); test: ASIC2a/3 assay, automated two-electrode voltage clamp in oocytes microinjected with hASIC2a and hASIC3 (Example 2); type: cell-based; conditions: 50 μM, perfusion at pH 6.5; FIG. 8
T1 construct: expressed in transfected cells; host or cells: Xenopus laevis oocytes, cRNA microinjection, 1:1 mass ratio
T1 sequence (Q16515 1-512): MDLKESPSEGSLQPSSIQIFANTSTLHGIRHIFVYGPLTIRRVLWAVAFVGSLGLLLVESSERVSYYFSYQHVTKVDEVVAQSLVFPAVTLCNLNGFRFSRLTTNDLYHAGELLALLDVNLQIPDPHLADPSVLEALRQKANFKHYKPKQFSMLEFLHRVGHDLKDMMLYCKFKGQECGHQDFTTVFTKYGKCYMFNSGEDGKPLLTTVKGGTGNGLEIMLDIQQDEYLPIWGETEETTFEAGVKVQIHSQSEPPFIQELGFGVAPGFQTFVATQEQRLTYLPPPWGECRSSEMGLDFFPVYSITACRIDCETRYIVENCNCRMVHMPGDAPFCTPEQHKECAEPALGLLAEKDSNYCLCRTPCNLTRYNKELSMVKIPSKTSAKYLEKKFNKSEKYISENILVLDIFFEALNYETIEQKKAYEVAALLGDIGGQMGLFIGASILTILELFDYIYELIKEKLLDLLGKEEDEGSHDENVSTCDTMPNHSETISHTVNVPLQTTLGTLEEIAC
T1 sequence (Q9UHC3 1-531): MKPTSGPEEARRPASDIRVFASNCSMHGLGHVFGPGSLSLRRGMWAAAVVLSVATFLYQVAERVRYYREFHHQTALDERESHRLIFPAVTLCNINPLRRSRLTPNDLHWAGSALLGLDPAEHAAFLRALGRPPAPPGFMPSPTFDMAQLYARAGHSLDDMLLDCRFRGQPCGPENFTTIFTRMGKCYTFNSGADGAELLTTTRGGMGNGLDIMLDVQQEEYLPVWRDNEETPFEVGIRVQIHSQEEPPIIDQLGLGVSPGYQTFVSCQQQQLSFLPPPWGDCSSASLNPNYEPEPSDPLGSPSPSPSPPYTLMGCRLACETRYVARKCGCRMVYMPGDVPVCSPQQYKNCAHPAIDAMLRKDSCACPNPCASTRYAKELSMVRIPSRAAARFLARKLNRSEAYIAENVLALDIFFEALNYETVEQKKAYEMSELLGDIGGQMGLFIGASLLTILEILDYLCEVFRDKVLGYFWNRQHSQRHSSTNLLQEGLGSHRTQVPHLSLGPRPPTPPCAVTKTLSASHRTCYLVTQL
Experimental: The ASIC2a/3 assay involves methods and procedures commonly in use and have been extensively described in the literature.
Briefly, a mature female frog is placed on its back after anesthesia, 20 min in 0.1% (w/v) Tricaine (Sigma), and incision is made on the lower abdomen through the skin, muscle and into the peritoneum. Lobes of ovaries are pulled out with forceps, cut and placed in a solution of Ca^2+-free Barth's with 1% (w/v) collagenase Type I (Sigma) added, for 90 minutes. The dissociated eggs are then washed with complete Barth's, supplementd with […] Gentamycin.
Plasmids containing cDNA for ASIC2a+ASIC3 are linearized and used for cRNA synthesis. The synthesis is done according to the protocol insert of the synthesis kit (e.g. Message Machine, Ambion). The final resuspension of the cRNA is made to provide a concentration of 1 μg/μL. The cDNA's for hASIC2a and hASIC3 are mixed with a 1:1 mass ratio and injected at […] per oocyte. Micro-injected oocytes start expressing hASIC2a3 specific current after 24 h.
The oocytes micro-injected with hASIC2a and hASIC3 cRNA's are placed in the recording chambers of the automated rig and then impaled with the voltage and current micro-electrodes. […] The voltage and current for each oocyte is recorded in one pass during both applications for later analysis. […]

[2] = tested on: chemically-induced spontaneous pain evoked by intraplantar injection of formalin; test: Formalin test, model of acute tonic pain (Example 7); type: in vivo; conditions: rat; SC, 10 and 300 μmol/kg, 60 min prior to formalin; FIG. 9A
Experimental: Male Sprague-Dawley rats are housed together in groups of three animals under standard conditions with unrestricted access to food and water. All experiments are conducted according to the ethical guidelines for investigations of experimental pain in conscious animals (Zimmerman, 1983).
Assessment of formalin-induced flinching behavior in normal, uninjured rats (body weight 200-300 g) is made after formalin (2.5% in saline, 50-100 μl, s.c.) is injected into the plantar surface of the hindpaw using a 27 G needle. Rats are pretreated with test compounds either administered intravenously (IV), by subcutaneous injection (SC) or by orally (PO).
Nociceptive behavior is determined manually every 5 min by measuring the amount of time spent in each of four behavioral categories: 0, treatment of the injected hindpaw is indistinguishable from that of the contralateral paw; 1, the injected paw has little or no weight placed on it; 2, the injected paw is elevated and is not in contact with any surface; 3, the injected paw is licked, bitten, or shaken. A weighted nociceptive score, ranging from 0 to 3 is calculated by multiplying the time spent in each category by the category weight, summing these products, and dividing by the total time for each 5 min block of time. (Coderre et al., Pain 1993; 54: 43). On the basis of the resulting response patterns, […] of nociceptive behavior are identified and scored: first phase (P1; 0-5 min), interphase (Int; 6-15 min), second phase (P2; […]), phase 2A (P2A; 16-40 min) and phase 2B (P2B; 41-60 min).
Statistical analysis is performed using the Prism™ 4.01 software package (GraphPad, San Diego, Calif., USA). The difference in response levels between treatment groups and control vehicle group is analyzed using an ANOVA followed by Bonferroni's method for post-hoc pair-wise comparisons. A p value <0.05 is considered to be significant.

[3] = target: T1, hASIC2a/3 steady state (window) current; conditions: supramaximal concentration; Babinski et al. (2000); cited from earlier work

Row | SMILES | inhibition of the ASIC 2a/3 current [1] | pain intensity as evaluated by the licking behavior [2] | block of the ASIC2A/3 steady state current [3]
1 | O=C(O)c1ccc(Nc2nc(-c3ccc(Cl)cc3)nc3ccccc23)cc1 [Compound 111] | specific inhibition | dose-dependent reduction | 
2 | [Gd+3] [gadolinium (Gd^3+)] |  |  | completely block
